Measured values reported in PubChem BioAssay AID1188 (EPA DSSTox, 2008).
Activity calls are given as the source filed them.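 The calls were made as follows: active = a concentration killing half the fathead minnows in the acute test was determined; inconclusive = some fish died but not half at top dose; inactive = no fish died even at top dose.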

The compounds below were run on Fathead minnow (Pimephales promelas) acute toxicity, lethality (assay: DSSTox (EPAFHM) EPA Fathead Minnow Acute Toxicity).
Source text: The EPA Fathead Minnow Acute Toxicity database was generated by the U.S. EPA Mid-Continental Ecology Division (MED) for the purpose of developing an expert system to predict acute toxicity from chemical structure based on mode of action considerations. […] A second valuable aspect of this database, from a QSAR modeling perspective, is the inclusion of general mode-of-action (MOA) classifications of acute toxicity response for individual chemicals derived from study results. MOA assignments are biologically based classifications, allowing definition of chemical similarity based upon biological activity instead of organic chemistry functional class as most commonly employed in QSAR study. MOA classifications should strengthen the scientific basis for construction of individual QSARs. However, it is cautioned that the broad MOA categorizations should not be construed to represent a single molecular mechanism; for example, CNS seizure agents and respiratory inhibitors are known to act through a variety of receptors. The EPA Fathead Minnow database and results have been used by EPA MED to build components of the ASTER prediction system, which incorporates MOA-based QSARs for the prediction of aquatic toxicity of environmental and industrial chemicals. Briefly, MOA classifications for individual chemicals, derived from experiments and provided in the EPA Fathead Minnow database, were used to derive substructural rules for assigning a new chemical to an MOA category based solely on chemical structure. Once a new chemical is assigned to an MOA category on this basis, the logP-based QSAR for that MOA category is applied.
The DSSTox EPAFHM database (available from the DSSTox Source URL) includes information pertaining to organic chemical class assignments (ChemClass_FHM), acute toxicity in fathead minnow (LC50_mg), dose-response assessments (LC50_Ratio, ExcessToxicityIndex), behavioral assessments (FishBehaviorTest), joint toxicity MOA evaluations of mixtures (MOA_MixtureTest), and additional MOA evaluation of fish acute toxicity syndrome (FishAcuteToxSyndrome) in rainbow trout. All of these indicators, to the extent available, were considered in the determination of MOA and, additionally, were used to determine a level of confidence in the MOA assignment for each chemical (MOA_Confidence). […] Activity Score is mapping of LOG10 (1/LC50_mmol) activity values spanning activity range [MIN, MAX] onto Integer 1-100 Activity range, where 100 is highest potency and 1 is lowest. If Activity Outcome is "active": Activity Score = 100 * INTEGER[(log10(1/ LC50_mmol) - MIN)/([…])].
For `CCc1ccc(O)cc1`, the Potency was 85.1 µM.
Work on `Cc1cccc(Cl)c1C#N` yielded a Potency of 99.6 µM.
`CC(C)OC(C)C` was tested, and the Potency was 7690 µM.
Work on `NC(=O)c1ccccc1N` yielded a Potency of 2900 µM.
For `NC(=O)c1ccccc1`, the Potency was 5460 µM.
In the case of `CCOC(=O)c1ccccc1O`, the Potency is reported as 122 µM.
Compound `Cc1ccc(C)o1` has a Potency of 740 µM.
Compound `O=[N+]([O-])c1ccc(Oc2ccccc2)cc1` has a Potency of 12.3 µM.
`c1ccc(-c2cccc(-c3ccccc3)n2)cc1` was tested, and the Potency was 0.908 µM.
With `CCCCN(C=O)CCCC` the Potency was 568 µM.
With `CCOP(=S)(OCC)SCCSCC` the Potency was 9.95 µM.
`N#Cc1cc(Cl)c(O)c(Cl)c1` was tested, and the Potency was 129 µM.
For `O=Cc1cc(Br)cc(Br)c1O`, the Potency was 3.04 µM.
`O=C1c2ccccc2C(=O)c2ccccc21` was tested, and the outcome was “inactive; moa not determined either due to lack of toxicity at saturation or late test res”.
Compound `CC1(C)CC(=O)CC(=O)C1` has a Potency of 82000 µM.
`CCC(C)n1c(=O)[nH]c(C)c(Br)c1=O` (stereo not given) was tested, and the Potency was 712 µM.
`Oc1ccccc1-c1ccccc1` showed a Potency of 36.1 µM.
In the case of `c1ccc(CN2CCNCC2)cc1`, the Potency is reported as 269 µM.
`IC(I)I` showed a Potency of 7.42 µM.
Compound `CNc1ccccc1` has a Potency of 933 µM.
For `CCOP(=O)(OCC)SCCSCC`, the Potency was 61.9 µM.
With `COc1ccc(OC)c(C(=O)CBr)c1` the Potency was 2.55 µM.
For `C/C=N/O`, the Potency was 1290 µM.
Work on `N#Cc1cc(Cl)ccc1N` yielded a Potency of 187 µM.
`O=Cc1cc(O)ccc1[N+](=O)[O-]` gave a Potency of 251 µM.
In the case of `CC(C)(C)SSC(C)(C)C`, the Potency is reported as 7.68 µM.
In the case of `N#Cc1cccc(C(F)(F)F)c1`, the Potency is reported as 279 µM.
`c1ccc2c(c1)oc1ccccc12` gave a Potency of 8.92 µM.
`CC(=O)/C=C/C1=C(C)CCCC1(C)C` showed a Potency of 26.5 µM.
For `O=CN(c1ccccc1)c1ccccc1`, the Potency was 154 µM.
In the case of `Cc1cc(Oc2ccc([N+](=O)[O-])cc2)ccc1Cl`, the outcome is reported as “inactive; moa not determined either due to lack of toxicity at saturation or late test res”.
Compound `O=C1CCCCC1` has a Potency of 6330 µM.
`C=CCC#N` showed a Potency of 2710 µM.
Compound `Nc1ccc(Cl)c(Cl)c1Cl` has a Potency of 18.5 µM.
`C#CCC(C)O` (stereo not given) showed a Potency of 417 µM.
For `CCCCCCCC/C=C\CCCCCCCCO`, the outcome was “inactive; moa not determined either due to lack of toxicity at saturation or late test res”.
Work on `C=C[C@@]1(C)CC[C@H]2C(=CC[C@@H]3[C@]2(C)CCC[C@@]3(C)C(=O)O)C1` yielded a Potency of 2.88 µM.
Work on `CCCCCCCCCCC(C)=O` yielded a Potency of 6.4 µM.
`C/C=C/C=C/C` showed a Potency of 243 µM.
`CN(C)c1ccc(P(=O)(c2ccc(N(C)C)cc2)c2ccc(N(C)C)cc2)cc1` was tested, and the outcome was “inactive; moa not determined either due to lack of toxicity at saturation or late test res”.
Compound `CCCCCCCN` has a Potency of 189 µM.
With `O=[N+]([O-])c1ccc(Oc2ccc(Br)cc2)c([N+](=O)[O-])c1` the outcome was “inactive; moa not determined either due to lack of toxicity at saturation or late test res”.
With `N#CCCCCCCC#N` the Potency was 3880 µM.
`BrCCCBr` gave a Potency of 10.4 µM.
Compound `CCC(=O)c1ccc(N)cc1` has a Potency of 979 µM.
In the case of `CCOP(=S)(Oc1ccc([N+](=O)[O-])cc1)c1ccccc1` (stereo not given), the Potency is reported as 0.243 µM.
With `CNC(=O)Oc1cccc2ccccc12` the Potency was 43.5 µM.
`CCO` gave a Potency of 319000 µM.
`OCCN1CCOCC1` was tested, and the Potency was 20700 µM.
`CC(C)=O` showed a Potency of 123000 µM.
For `CCCCCCCCCCc1ccc(N)cc1`, the Potency was 0.266 µM.
`CC1(C)[C@@H]2CC[C@@]1(C)C(=O)[C@H]2Br` gave a Potency of 296 µM.
`CCc1ccc(C)nc1` showed a Potency of 669 µM.
In the case of `CN(C)C(=O)Nc1ccc(Cl)c(Cl)c1`, the Potency is reported as 60.9 µM.
`CCCCCC(C)=O` gave a Potency of 1150 µM.
Compound `CCCCC(CC)CO` (stereo not given) has a Potency of 217 µM.
Compound `CCOP(=S)(OCC)SCSC(C)(C)C` has a Potency of 0.0461 µM.
For `O=Cc1ccc(Cl)cc1`, the Potency was 15.6 µM.
`C1CCCCC1` was tested, and the Potency was 53.8 µM.
In the case of `CCCCCCN`, the Potency is reported as 559 µM.
In the case of `O=P(c1ccccc1)(c1ccccc1)c1ccccc1`, the Potency is reported as 193 µM.
Work on `O=c1ccc(Cl)c[nH]1` yielded a Potency of 8800 µM.
With `CCCCC(CC)COC(=O)c1ccccc1C(=O)OCC(CC)CCCC` (stereo not given) the outcome was “inactive; moa not determined either due to lack of toxicity at saturation or late test res”.
Compound `CCOc1ccc(N)c([N+](=O)[O-])c1` has a Potency of 143 µM.
Compound `Nc1ccc(F)c(C(F)(F)F)c1` has a Potency of 168 µM.
In the case of `CCCCCCCCOC(=O)c1ccccc1C(=O)OCCCCCCCC`, the outcome is reported as “inactive; moa not determined either due to lack of toxicity at saturation or late test res”.
`C=C(C)C(=O)OCCO` gave a Potency of 1740 µM.
`Clc1ccccc1Cl` gave a Potency of 64 µM.
`CCC1(CCC(C)C)C(=O)NC(=O)NC1=O` showed a Potency of 377 µM.
`CCCCOC(=O)CCCCC(=O)OCCCC` was tested, and the Potency was 14.1 µM.
`CC=O` showed a Potency of 767 µM.
`O=C(Nc1ccccc1)c1ccccc1O` gave a Potency of 18.5 µM.
With `c1ccc(-c2nc(-c3ccccc3)c(-c3ccccc3)[nH]2)cc1` the outcome was “inactive; moa not determined either due to lack of toxicity at saturation or late test res”.
Work on `CC/C=C\CCO` yielded a Potency of 3800 µM.
With `CCOC(=O)N(C(=O)OCC)C(=O)OCC` the Potency was 57 µM.
